US20020082448A1, “Aminoguanidine carboxylates for the treatment of non-insulin-dependent diabetes mellitus” (The Upjohn Company, priority 1999, published 2002)
Where two headings read alike, the source gives them in different places.

Assays:
KKAy mice [1] = test: Reduction of non-fasting blood glucose in KKAy mice, compound admixed in chow; assay type: in vivo, mouse; conditions: for % Change Blood Glucose: Day 3 vs Day-1
Excerpt: (§1) KKAy mice are rodent models of NIDDM and obesity (Chang, Wyse, Copeland, Peterson, and Ledbetter, 1986). A pre-treatment blood sample was obtained from the retro-orbital sinus and the mice arranged in groups of 6 so that the mean pre-treatment blood glucose level was the same on average in all groups. […] Control mice received unsupplemented chow. On Day 0, the mice were weighed and provided control chow or chow supplemented with test compounds. After 3 days of consuming control chow or chow supplemented with test compounds, a blood sample was obtained for determination of the glucose concentration and the animals were weighed for determination of weight loss. Food consumption was measured by weighing the food provided at the beginning of the study and the food residue at the end of the study. Food consumption was calculated by subtracting the weight of the residue from the weight of the food provided. […] Blood glucose data are expressed as the average blood glucose concentration in the test group divided by the average blood glucose level in the control group (treatment/control or T/C). Compounds resulting in T/C values equal to or less than 0.90 are considered to be active anti-hyperglycemic agents. Weigh loss data are expressed as percent change in body weight. Compounds resulting in a decrease of 1% or more less than control in body weight over three days are considered to be active anti-obesity agents.

[2] = Body weight change in KKAy mice, compound admixed in chow; assay type: in vivo, mouse; conditions: for % Change Body Weight: Day 3 vs Day-1
Excerpt: as §1, with “provided. Drug intake was calculated by multiplying food consumption by 0.5%.” for “provided.”

human serum albumin = human serum albumin (Homo sapiens, UniProt P02768); test: Non-enzymatic glycosylation of human serum albumin, [14C]-glucose incorporation; assay type: biochemical; conditions: for non-enzymatic glycosylation of human serum albumin in vitro: Table 8 assay; for % [14C-glucose] Incorporated: test compound 19.1 mM, 100 mM [14C]-D-glucose, human serum albumin, 37° C., 8 days, control 1.50
Chain of human serum albumin (P02768 25-609): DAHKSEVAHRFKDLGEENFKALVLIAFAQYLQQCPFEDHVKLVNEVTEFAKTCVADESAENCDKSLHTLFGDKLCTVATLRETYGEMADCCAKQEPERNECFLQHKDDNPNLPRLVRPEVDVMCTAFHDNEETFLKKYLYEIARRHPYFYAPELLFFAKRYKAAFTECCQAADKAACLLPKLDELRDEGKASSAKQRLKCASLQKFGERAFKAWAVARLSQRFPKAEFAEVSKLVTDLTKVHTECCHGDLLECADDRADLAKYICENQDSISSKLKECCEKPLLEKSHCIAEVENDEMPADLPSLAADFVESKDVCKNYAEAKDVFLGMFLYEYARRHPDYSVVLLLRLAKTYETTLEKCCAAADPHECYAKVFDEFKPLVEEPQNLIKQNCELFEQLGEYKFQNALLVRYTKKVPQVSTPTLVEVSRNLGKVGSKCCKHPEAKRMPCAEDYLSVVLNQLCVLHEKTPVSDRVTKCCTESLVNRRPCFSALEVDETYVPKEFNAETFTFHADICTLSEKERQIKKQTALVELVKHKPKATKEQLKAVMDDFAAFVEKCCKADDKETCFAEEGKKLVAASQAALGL

mice [3] = conditions: cited from earlier work
proteins = conditions: in vitro; cited from earlier work
rats [4] = conditions: cited from earlier work; for effect on hyperglycemia: chronic oral
[5] = cited from earlier work
[6] = tested on: advanced glycosylation endproducts; conditions: in vivo; cited from earlier work
mice [7] = conditions: cited from earlier work; for effect on hyperglycemia / effect on blood glucose concentration: chronic oral; for effect on blood glucose concentration: 250 mg/kg/day
rats [8] = conditions: cited from earlier work
[9] = tested on: erythrocyte plasma membranes; conditions: incubated with glucose in vitro, cited from earlier work
[10] = cited from earlier work; remark: listed apart in the source
[11] = cited from earlier work; remark: listed apart in the source
C57BL mice = test: Intraperitoneal glucose tolerance in non-diabetic C57BL mice; assay type: in vivo, mouse; conditions: for Blood Glucose: C57BL mice, 100 mg/kg oral gavage
KKAy mice [12] = test: Intraperitoneal glucose tolerance in diabetic KKAy mice; assay type: in vivo, mouse; conditions: for Blood Glucose: KKAy mice, 100 mg/kg oral gavage
[13] = 0.5% in chow (approx. 500 mg/kg/day)
[14] = normal or alloxan-diabetic rats
[15] = 30 min after 2 g/kg glucose I.P.
[16] = 60 min after 2 g/kg glucose I.P.
[17] = 90 min after 2 g/kg glucose I.P.
[18] = fasted 16-17 h, Time 0 (before 2 g/kg glucose I.P.)
[19] = 0.03% in chow (approx. 30 mg/kg/day)
[20] = 0.06% in chow (approx. 60 mg/kg/day)
[21] = 0.10% in chow (approx. 100 mg/kg/day)
[22] = 0.2% in chow (approx. 200 mg/kg/day)
[23] = 0.3% in chow (approx. 300 mg/kg/day)
[24] = 0.4% in chow (approx. 400 mg/kg/day)

SMILES: N=C(N)NCCC(=O)O [3-Guanidinopropionic acid]
- dose required to reduce the blood glucose level by 20% (KKAy mice [1]): 130 mg/kg/day
- % Change Blood Glucose (KKAy mice [1]; [13]): −38.4 ± 4.4 %
- % Change Body Weight [2, 13]: −5.4 ± 0.81 %
- non-enzymatic glycosylation of human serum albumin in vitro (human serum albumin): no effect
- % [14C-glucose] Incorporated (human serum albumin): 1.52%
- glucose tolerance (mice [3]; diabetic KKAy mice, 1% admixture in chow, approximately 1000 mg/kg/day): improves glucose tolerance

SMILES: N=C(N)NN [Aminoguanidine]
- non-enzymatic glycosylation of proteins (proteins): inhibit
- effect on blood glucose level (rats [4]; normal rodents or rats made diabetic by alloxan or streptozotocin): no effect
- effect on body weight ([5]; human and rats (Baylin et al.)): increase in body weight
- effect on body weight ([5]; normal or diabetic rats): no effect
- non-enzymatic glycosylation of human serum albumin in vitro (human serum albumin): effective
- % [14C-glucose] Incorporated (human serum albumin): 0.96 (P < 0.05 vs. Control) %
- formation of advanced glycosylation endproducts [6]: inhibit

SMILES: N/N=C(\N)NN [Diaminoguanidine]
- non-enzymatic glycosylation of proteins (proteins): inhibit
- effect on blood glucose level (rats [4]; [14]): no effect
- effect on body weight [5, 14]: does not affect
- formation of advanced glycosylation endproducts [6]: inhibit

SMILES: CN(C)C(=N)N=C(N)N [Metformin]
- effect on hyperglycemia (mice [7]; DBM mice, 400 mg/kg/day): reduces hyperglycemia
- dose required to reduce the blood glucose level by 25% (mice [7]; KKAy mice (Meglasson et al.)): 300 mg/kg/day
- effect on hyperglycemia (mice [7]; KKAy mice, 300 mg/kg/day or more): reduces hyperglycemia
- effect on blood glucose concentration (mice [7]; diabetic ob/ob mice): did not affect
- effect on blood glucose concentration (mice [7]; normal mice): did not affect
- effect on blood glucose concentration (mice [7]; streptozotocin-diabetic mice): did not affect
- effect on hyperglycemia (rats [4]; Zucker fa/fa rats, 350 mg/kg/day): reduces hyperglycemia
- effect on hyperglycemia (rats [4]; neonatal streptozotocin-diabetic rats, 100 mg/kg/day): reduces hyperglycemia
- effect on blood glucose level (rats [4]; rats, acute administration, 264 mg/kg): did not affect
- glucose tolerance (rats [8]; normal rats, 750 mg/kg): not affect glucose tolerance
- oral glucose tolerance (rats [8]; streptozotocin-diabetic rats, 250 mg/kg): oral glucose tolerance was increased
- non-enzymatic glycosylation of erythrocyte plasma membranes ([9]; 0.5 and 5 micromoles per liter): inhibit non-enzymatic glycosylation
- non-enzymatic glycosylation of erythrocyte plasma membranes ([9]; 50 and 100 micromoles per liter): reverse effect
- effect on body weight ([10]; KKAy mice, 1700 mg/kg/day, not at lower doses): statistically significant weight loss
- effect on body weight ([10]; diabetic ob/ob mice, 240 mg/kg/day): did not cause weight loss
- effect on body weight ([10]; streptozotocin-diabetic mice, 60 mg/kg/day): did not cause weight loss
- glucose tolerance (mice [3]; normal mice, 50 mg/kg): not affect glucose tolerance
- oral glucose tolerance (mice [3]; normal mice, 250 mg/kg): oral glucose tolerance was increased
- effect on body weight ([11]; non-insulin dependent diabetic patients treated for one year (Bailey)): cause weight loss
- effect on body weight ([11]; obese non-insulin dependent diabetic patients, similar length of time (Multi-centre Study)): no significant effect

SMILES: NNC(=NCC(=O)O)NN [N-(dihydrazinomethylene)-glycine]
- Blood Glucose (C57BL mice; [15]): 174 ± 17 mg/dL
- Blood Glucose (C57BL mice; [16]): 153 ± 7 mg/dL
- Blood Glucose (C57BL mice; [17]): 161 ± 19 mg/dL
- Blood Glucose (C57BL mice; [18]): 114 ± 9 mg/dL
- fasting blood glucose concentration (C57BL mice; normal C57BL mice, 100 mg/kg): decreased
- glucose tolerance (C57BL mice; normal C57BL mice, 100 mg/kg): improved glucose tolerance
- dose for a similar (25%) reduction in the blood glucose level (KKAy mice [1]): 30 to 60 mg/kg/day
- dose required to reduce the blood glucose level by 20% (KKAy mice [1]): 30 mg/kg/day
- % Change Blood Glucose (KKAy mice [1]; [19]): −13.5 ± 10.5%
- % Change Blood Glucose (KKAy mice [1]; [20]): −34.9 ± 17.1 %
- decrease in the blood glucose level (KKAy mice [1]; 60 mg/kg/day, 4 days): 35%
- % Change Blood Glucose (KKAy mice [1]; [21]): −45.2 ± 6.4 %
- % Change Blood Glucose (KKAy mice [1]; [22]): −69.9 ± 3.2 ¶ %
- % Change Blood Glucose (KKAy mice [1]; [23]): −70.4 ± 1.5 ¶ %
- % Change Blood Glucose (KKAy mice [1]; [24]): −70.3 ± 3.9 ¶ %
- % Change Body Weight [2, 19]: −0.92 ± 0.35%
- % Change Body Weight [2, 20]: −1.51 ± 2.11%
- % Change Body Weight [2, 21]: −4.04 ± 0.76 %
- decrease in the body weight ([2]; 100 mg/kg/day, 4 days): 4%
- % Change Body Weight [2, 22]: −8.22 ± 1.05 %
- % Change Body Weight [2, 23]: −9.94 ± 1.62 ¶ %
- % Change Body Weight [2, 24]: −10.3 ± 0.97 ¶ %
- Blood Glucose (KKAy mice [12]; [15]): 383 ± 38 mg/dL
- Blood Glucose (KKAy mice [12]; [16]): 396 ± 63 mg/dL
- Blood Glucose (KKAy mice [12]; [17]): 392 ± 67 mg/dL
- Blood Glucose (KKAy mice [12]; [18]): 115 ± 16 mg/dL
- glucose tolerance (KKAy mice [12]; diabetic KKAy mice, 100 mg/kg): improved glucose tolerance
- non-enzymatic glycosylation of human serum albumin in vitro (human serum albumin): reduced
- % [14C-glucose] Incorporated (human serum albumin): 0.81 (P < 0.05 vs. Control) %

SMILES: Cl.N=C(N)NNCC(=O)O [[2-(aminoiminomethyl)hydrazino]-, monohydrochloride acetic acid]
- non-enzymatic glycosylation of human serum albumin in vitro (human serum albumin): reduced
- % [14C-glucose] Incorporated (human serum albumin): 1.29 (P < 0.10 vs. Control) %

SMILES: CCCCNC(=N)NC(=N)N [buformin]
- effect on blood glucose level (rats [4]; rats, acute administration, 132 mg/kg): did not affect
